In PMC4303209, “A novel phosphatidylinositol 3-kinase (PI3K) inhibitor directs a potent FOXO-dependent, p53-independent cell cycle arrest phenotype characterized by the differential induction of a subset of FOXO-regulated genes” (Breast Cancer Research : BCR, 2014):

Test system: MCF-7 breast cancer cells
Assay: Microarray gene expression analysis (Agilent whole human genome 4 x 44K; compound vs DMSO, LIMMA log2 fold change)
Type: cell-based
Conditions: Apoptosis genes

## Oc1cccc(-c2nc(N3CCOCC3)c3oc4ncccc4c3n2)c1 [PI-103]
Gene 5371
  PML log2FC: -0.410
Gene 5436
  POLR2G log2FC: 0.401
Gene 5455
  POU3F3 log2FC: -0.338
Gene 5457
  POU4F1 log2FC: -0.488
Gene 5459
  POU4F3 log2FC: -0.095
Gene 5467
  PPARD log2FC: -0.189
Gene 5468
  PPARG log2FC: -0.320
Gene 5481
  PPID log2FC: -0.224
Gene 5499
  PPP1CA log2FC: -0.185
Gene 5515
  PPP2CA log2FC: -0.522
Gene 5516
  PPP2CB log2FC: -0.272
Gene 5519
  PPP2R1B log2FC: -0.663
Gene 5521
  PPP2R2B log2FC: 0.085
Gene 5524
  PPP2R4 log2FC: -0.318
Gene 5527
  PPP2R5C log2FC: 0.778
Gene 5533
  PPP3CC log2FC: 0.049
Gene 5534
  PPP3R1 log2FC: -0.344
Gene 5538
  PPT1 log2FC: 0.180
Gene 5551
  PRF1 log2FC: 0.035
Gene 5562
  PRKAA1 log2FC: 0.297
Gene 5563
  PRKAA2 log2FC: 0.067
Gene 5578
  PRKCA log2FC: -0.157
Gene 5580
  PRKCD log2FC: 0.117
Gene 5581
  PRKCE log2FC: -0.00329
Gene 5582
  PRKCG log2FC: 0.076
Gene 5583
  PRKCH log2FC: -0.184
Gene 5584
  PRKCI log2FC: 0.477
Gene 5586
  PKN2 log2FC: 0.513
Gene 5587
  PRKD1 log2FC: 0.547
Gene 5588
  PRKCQ log2FC: 0.186
Gene 5590
  PRKCZ log2FC: 0.565
Gene 5591
  PRKDC log2FC: 0.275
Gene 5595
  MAPK3 log2FC: -0.116
Gene 5598
  MAPK7 log2FC: -0.110
Gene 5608
  MAP2K6 log2FC: 0.357
Gene 5625
  PRODH log2FC: -0.118
Gene 5641
  LGMN log2FC: -0.107
Gene 5663
  PSEN1 log2FC: 0.372
Gene 5664
  PSEN2 log2FC: -0.390
Gene 5683
  PSMA2 log2FC: 0.170
Gene 5684
  PSMA3 log2FC: 0.144
Gene 5685
  PSMA4 log2FC: 0.470
Gene 5687
  PSMA6 log2FC: 0.068
Gene 5689
  PSMB1 log2FC: 0.009
Gene 5690
  PSMB2 log2FC: -0.432
Gene 5692
  PSMB4 log2FC: 0.171
Gene 5693
  PSMB5 log2FC: -0.219
Gene 5694
  PSMB6 log2FC: -0.080
Gene 5698
  PSMB9 log2FC: -0.100
Gene 5699
  PSMB10 log2FC: -0.116
Gene 5700
  PSMC1 log2FC: -0.009
Gene 5701
  PSMC2 log2FC: 0.279
Gene 5702
  PSMC3 log2FC: -0.185
Gene 5705
  PSMC5 log2FC: -0.314
Gene 5706
  PSMC6 log2FC: 0.515
Gene 5707
  PSMD1 log2FC: 0.029
Gene 5709
  PSMD3 log2FC: -0.074
Gene 5710
  PSMD4 log2FC: -0.036
Gene 5711
  PSMD5 log2FC: 0.189
Gene 5713
  PSMD7 log2FC: 0.00364
Gene 5714
  PSMD8 log2FC: -0.122
Gene 5715
  PSMD9 log2FC: -0.396
Gene 5716
  PSMD10 log2FC: -0.344
Gene 5717
  PSMD11 log2FC: -0.327
Gene 5718
  PSMD12 log2FC: -0.768
Gene 5720
  PSME1 log2FC: 0.313
Gene 5728
  PTEN log2FC: 0.958
Gene 5737
  PTGFR log2FC: -0.038
Gene 5740
  PTGIS log2FC: -0.013
Gene 5741
  PTH log2FC: -0.180
Gene 5743
  PTGS2 log2FC: -0.053
Gene 5747
  PTK2 log2FC: 0.040
Gene 5777
  PTPN6 log2FC: 0.257
Gene 5788
  PTPRC log2FC: -0.026
Gene 5794
  PTPRH log2FC: 0.545
Gene 5879
  RAC1 log2FC: -0.226
Gene 5883
  RAD9A log2FC: 0.679
Gene 5885
  RAD21 log2FC: 0.829
Gene 5896
  RAG1 log2FC: 0.688
Gene 5899
  RALB log2FC: 0.076
Gene 5914
  RARA log2FC: -0.310
Gene 5916
  RARG log2FC: -0.122
Gene 5921
  RASA1 log2FC: 0.472
Gene 5924
  RASGRF2 log2FC: 0.069
Gene 5925
  RB1 log2FC: 0.674
Gene 5970
  RELA log2FC: -0.351
Gene 5977
  DPF2 log2FC: 0.525
Gene 5978
  REST log2FC: 0.317
Gene 6091
  ROBO1 log2FC: 0.307
Gene 6092
  ROBO2 log2FC: 0.013
Gene 6093
  ROCK1 log2FC: 0.642
Gene 6189
  RPS3A log2FC: 0.496
Gene 6194
  RPS6 log2FC: 0.259
Gene 6195
  RPS6KA1 log2FC: -0.106
Gene 6197
  RPS6KA3 log2FC: 0.273
Gene 6198
  RPS6KB1 log2FC: 0.247
Gene 6233
  RPS27A log2FC: 0.447
Gene 6242
  RTKN log2FC: -0.055
Gene 6272
  SORT1 log2FC: 0.382
Gene 6279
  S100A8 log2FC: -0.346
Gene 6285
  S100B log2FC: -0.112
Gene 6304
  SATB1 log2FC: 0.836
Gene 6343
  SCT log2FC: -0.026
Gene 6347
  CCL2 log2FC: -0.193
Gene 6348
  CCL3 log2FC: -0.075
Gene 6352
  CCL5 log2FC: 0.070
Gene 6366
  CCL21 log2FC: -0.020
Gene 6376
  CX3CL1 log2FC: -0.245
Gene 6387
  CXCL12 log2FC: -0.262
Gene 6416
  MAP2K4 log2FC: -0.057
Gene 6418
  SET log2FC: 0.155
Gene 6422
  SFRP1 log2FC: 0.243
Gene 6423
  SFRP2 log2FC: -0.008
Gene 6424
  SFRP4 log2FC: 0.079
Gene 6425
  SFRP5 log2FC: -0.036
Gene 6453
  ITSN1 log2FC: 0.185
Gene 6461
  SHB log2FC: -0.563
Gene 6469
  SHH log2FC: -0.168
Gene 6477
  SIAH1 log2FC: 0.170
Gene 6478
  SIAH2 log2FC: -0.479
Gene 6491
  STIL log2FC: 0.014
Gene 6495
  SIX1 log2FC: -0.700
Gene 6497
  SKI log2FC: -0.565
Gene 6548
  SLC9A1 log2FC: -0.632
Gene 6586
  SLIT3 log2FC: -0.267
Gene 6591
  SNAI2 log2FC: 0.040
Gene 6608
  SMO log2FC: 0.037
Gene 6609
  SMPD1 log2FC: 0.629
Gene 6610
  SMPD2 log2FC: -0.222
Gene 6614
  SIGLEC1 log2FC: -0.395
Gene 6615
  SNAI1 log2FC: -0.868
Gene 6620
  SNCB log2FC: -0.584
Gene 6622
  SNCA log2FC: -0.028
Gene 6648
  SOD2 log2FC: 0.190
Gene 6651
  SON log2FC: -0.153
Gene 6657
  SOX2 log2FC: 0.228
Gene 6659
  SOX4 log2FC: 0.369
Gene 6662
  SOX9 log2FC: -2.014
Gene 6663
  SOX10 log2FC: -0.037
Gene 6672
  SP100 log2FC: 0.688
Gene 6688
  SPI1 log2FC: -0.418
Gene 6693
  SPN log2FC: 0.011
Gene 6714
  SRC log2FC: -0.352
Gene 6733
  SRPK2 log2FC: 0.776
Gene 6750
  SST log2FC: 0.576
Gene 6753
  SSTR3 log2FC: -0.180
Gene 6770
  STAR log2FC: -0.178
Gene 6772
  STAT1 log2FC: 0.221
Gene 6776
  STAT5A log2FC: 0.392
Gene 6777
  STAT5B log2FC: 0.109
Gene 6789
  STK4 log2FC: -0.017
Gene 6794
  STK11 log2FC: 0.00114
Gene 6812
  STXBP1 log2FC: -0.400
Gene 6832
  SUPV3L1 log2FC: 0.284
Gene 6868
  ADAM17 log2FC: 0.527
Gene 6880
  TAF9 log2FC: 0.095
Gene 6885
  MAP3K7 log2FC: 0.00173
